Source: patent US6368788B1 (priority 1987, dated 2002)
Where two headings read alike, the source gives them in different places. Marks after values point to notes of the source that are not given here.

What was measured:
[1] = Pelvic inflammatory diseases; type: in vivo, human
Description: Ninety-six female patients (96) were entered into a trial having a variety of different disorders, i.e., pelvic inflammatory diseases, cervicitis, vaginitis and various tubo-ovarian and adnexal abscesses. Forty-six patients (46) comprised the L-Glu-L-Trp treatment group, and 50 patients comprised a conventional treatment control group. L-Glu-L-Trp was administered daily im at a dose of 100 μg, or 1 μg/kg intranasally, on each of 5 consecutive days. Alternatively, 50 μg of L-Glu-L-Trp was injected intralymphatically on each of 5 consecutive days in conjunction with conventional therapy. […] Normalization of immune parameters was correlated with the observed clinical improvements.
Patients entered into Group 1 (aged 19-50) were separable into clinical subgroups as follows: Subgroup 1A, consisted of 18 patients having […] (body temperature 38-39° C.), and suppurative vaginal discharge after infected abortions performed outside hospitals (average age 24.4±4.2 years); Subgroup 1B, consisted of 16 patients with abdominal pains resulting from chronic nonspecific subfebrile (<38° C.) inflammatory disease of the fallopian tubes (average age 32.2±3.9 years; range of abortions in the patient population 2-8); and, Subgroup 1C consisted of 12 patients with inflammation of the fallopian tubes, (38% resulting from placement of an IUD in the uterus more than 4 years previously). […] Group 2 (control) was constituted of 50 patients (aged 18-44) presenting with analogous symptoms and diseases and the patients in this group were treated with traditional antibiotic therapy.
In all cases L-Glu-L-Trp was delivered im at a dose of 100 μg in 1 ml volume daily on each of five days.
Treatment A: Administered to patients in Group 1A: The course of L-Glu-L-Trp therapy was administered, remnants of fetal tissue were surgically removed, and an additional course of L-Glu-L-Trp therapy was administered.
Treatment B: Administered to patients in Group 1B: L-Glu-L-Trp therapy was administered immediately upon admission into the protocol.
Treatment C: Administered to patients in Group 1C: Infected uterine tissues were surgically removed, abdominal drainage was established, and L-Glu-L-Trp therapy was administered starting 2 days post-operatively.
Patients were evaluated by monitoring the following parameters before, during, and 5-7 days after therapy: i) clinical status of the patient (i.e., body temperature, abdominal pain, and physical examinations) and, ii) laboratory data (i.e., urinalysis, blood chemistry, and blood immunology). The following clinical chemistry values of the patients in Groups 1A, 1B, and 1C were all within the normal range before and after treatment: AST, ALT, creatinine, urea, glucose, protein, chloride, potassium, and sodium. […] Treatment with L-Glu-L-Trp reduced the latter serum markers, i.e., alkaline phosphatase fell to 62.71±5.67 ED/mL and bilirubin to 0.50±0.03 mg %.

[2] = Complications of pregnancy (Protocol C); parameters: species or system human; details: in vivo
Description: L-Glu-L-Trp was administered to 34 pregnant women and 27 pregnant women receiving conventional treatment served as a control group. […] Signs of clinical improvement were resolution of weakness and dizziness, increased appetite, and the normalization of the immunological and hematological indices.

Adult thymectomy = test: Adult thymectomy; parameters: species or system human; details: in vivo
Description: A total of 12 thymectomized patients were treated with L-Glu-L-Trp. Prior to therapy, these individuals had experienced frequent serious infections including upper respiratory infections. L-Glu-L-Trp was administered in a single dose of 100 μg daily for 10 days and repeated every 4-6 months.

[3] = Chronic liver disease: jaundice and systemic toxicity; parameters: species or system human; details: in vivo
C. albicans = type: in vivo, mice; details: PDR
Pneumocystis carinii = Pneumocystis carinii lung infection in cortisone-immunocompromised rats; type: in vivo; details: for Lung (bacteria): mean ± S.E., magnification 400X; for Lymphocytes / Neutrophils / Total Leukocytes / Lymphocytes (% Normal) / Neutrophils (% normal) / Total Leukocytes (% normal): peripheral blood at 79 days; for Lymphocytes (% Normal) / Neutrophils (% normal) / Total Leukocytes (% normal): % of day 0
Description: Corticosteroids were administered to rats to induce an immunocompromised state in which an opportunistic infection with Pneumocystis carinii could be established. The immunocompromised state was induced by administering cortisone acetate im twice weekly at a dose of 25 mg/kg over the entire 12 week course of the study. Pneumocystis carinii lung infection was initiated by intranasal instillation on day 0. Prophylactic tetracycline was administered po in the drinking water ([…]), and peripheral blood differential counts were monitored over the next 12 weeks. In control (untreated) Pneumocystis-infected animals, differential counts, body weight, and lymphocyte counts began dropping at about 30-39 days and lung infection was evident histologically by about day 60-69. At day 80, tetracycline treatment was discontinued in all groups. By day 80 in this animal model, mean body weight of the animals had dropped by approximately 30% from the values recorded on day 0. Groups were comprised of 15 rats each.
L-Glu-L-Trp treatments were administered according to the following protocol: 10 consecutive daily im injections of 10 μg/kg or 100 μg/kg of L-Glu-L-Trp on days 0 through 9, 30 through 39, and 60 through 69 of the study. Differential cell counts in peripheral blood (TABLE 80) and lung histology (i.e., with enumeration of the number of P. carinii/10 microscopic fields—at 400× magnification) were used to monitor the course of the opportunistic infection.

[4] = Survival in LPS-induced endotoxic shock; type: in vivo, CBA mice; details: 100 μg/kg prophylactic
Description: The mortality results were evaluated using the Litchfield-Wilcoxon's probit analysis method and a computer program written to conduct probit analyses.

[5] = pooled Groups 1A-1C, After L-Glu-L-Trp Therapy

With L-Glu-L-Trp the Alkaline phosphatase ([1]; after treatment) was 62.71±5.67 ED/mL, the “B-lymphocytes, % of normal” value ([1]; after treatment) was roughly 55% and the Bilirubin ([1]; after treatment) was 0.50±0.03 mg %. For the same substance, the “Lymphocytes, % of normal” value ([1]; after treatment) was “about 81%”, the “T-lymphocytes, % of normal” value ([1]; after treatment) was “about 75%” and the Clinical outcome ([1]; in vivo) was “alleviated pain, reduced fever, and decreased the duration of the medical treatment”. For the same substance, the “B-Lymphocytes: % of Normal Value” [1, 5] was “(55%)”, the “B-Lymphocytes: % of PBL” value [1, 5] was 11.09 ± 0.87 % of PBL and the “B-Lymphocytes: No.” value [1, 5] was 0.27 ± 0.03* 10^9/L. The “Blastogenic Response: % Lym blast w/Con A” value [1, 5] was 68.70 ± 5.32%, the “Blastogenic Response: % Lym blast w/PHA” value [1, 5] was 37.22 ± 2.81 % and the IgA [1, 5] was 2.61 ± 0.33 g/L. For the same substance, the “IgA % Normal Value” [1, 5] was “(137%)”, the IgG [1, 5] was 13.73 ± 0.51 g/L and the “IgG % Normal Value” [1, 5] was “(126%)”. For the same substance, the IgM [1, 5] was 2.64 ± 0.36 g/L, the “IgM % Normal Value” [1, 5] was “(176%)” and the “Lymphocytes: % Normal Value” [1, 5] was “(81%)”. For the same substance, the “Lymphocytes: % of PBL” value [1, 5] was 36.61 ± 1.32 % of PBL, the “Lymphocytes: No.” value [1, 5] was 2.26 ± 0.12* 10^9/L and the “Phagocytes: % PBL” value [1, 5] was 74.78 ± 2.35 % PBL. The “T-Lymphocytes: % of Lym” value [1, 5] was 71.57 ± 1.76 % of Lym, the “T-Lymphocytes: % of Normal Value” [1, 5] was “(75%)” and the “T-Lymphocytes: No.” value [1, 5] was 1.67 ± 0.09* 10^9/L. For the same substance, the Clinical outcome [2] was “Decreased fetal hypoxia”, the Clinical outcome (Adult thymectomy) was “reduction of infectious disorders” and the “Seropositive patients with a positive response to therapy” value [3] was 21 of the 29. The “Seropositive patients with no detectable change” value [3] was 8, the “Germ Tube (%)” value (C. albicans; 0.1 μg/kg ip) was 35* % and the “Germ Tube (%)” value (C. albicans; 1 μg/kg ip) was 34* %. For the same substance, the “Germ Tube (%)” value (C. albicans; 10 μg/kg ip) was 35* %, the “Germ Tube (%)” value (C. albicans; 100 μg/kg ip) was 26* % and the “Germ Tube (%)” value (C. albicans; 300 μg/kg ip) was 37%. For the same substance, the “Numbers of lung bacteria, % of saline treated control” value (Pneumocystis carinii; 10 μg/kg) was “about 33%”, the “Lung (bacteria)” value (Pneumocystis carinii; 10 μg/kg im) was 53 ± 32 P. carinii bacteria per 10 sections and the “Numbers of lung bacteria, % of saline treated control” value (Pneumocystis carinii; 100 μg/kg) was roughly 43%. The “Lung (bacteria)” value (Pneumocystis carinii; 100 μg/kg im) was 70 ± 33 P. carinii bacteria per 10 sections, the “Leukocyte counts, % of normal” value (Pneumocystis carinii; day 79) was 45-47% and the “Lymphocyte counts, % of normal” value (Pneumocystis carinii; day 79) was 45%. For the same substance, the Lymphocytes (Pneumocystis carinii; 10 μg/kg im) was 4.7 ± 1.2 ×10^6/ml, the Neutrophils (Pneumocystis carinii; 10 μg/kg im) was 2.0 ± 0.7 ×10^6/ml and the “Total Leukocytes” value (Pneumocystis carinii; 10 μg/kg im) was 8.1 ± 2.3 ×10^6/ml. For the same substance, the “Lymphocytes (% Normal)” value (Pneumocystis carinii; 10 μg/kg im) was 45%, the “Neutrophils (% normal)” value (Pneumocystis carinii; 10 μg/kg im) was 41% and the “Total Leukocytes (% normal)” value (Pneumocystis carinii; 10 μg/kg im) was 47%. For the same substance, the Lymphocytes (Pneumocystis carinii; 100 μg/kg im) was 4.7 ± 1.4 ×10^6/ml, the Neutrophils (Pneumocystis carinii; 100 μg/kg im) was 1.5 ± 0.5 ×10^6/ml and the “Total Leukocytes” value (Pneumocystis carinii; 100 μg/kg im) was 7.8 ± 1.8 ×10^6/ml. The “Lymphocytes (% Normal)” value (Pneumocystis carinii; 100 μg/kg im) was 45%, the “Neutrophils (% normal)” value (Pneumocystis carinii; 100 μg/kg im) was 31% and the “Total Leukocytes (% normal)” value (Pneumocystis carinii; 100 μg/kg im) was 45%. For the same substance, the “Survivors at 24 hr. and 30 hr.” value [4] was “statistically significant difference in the number of survivors”.
